The source of these data is patent US9062071B2, “Substituted piperidines as HDM2 inhibitors” (Merck Sharp & Dohme Corp, priority 2011, dated 2015).

Molecules are shown by their SMILES.

The test has as its target HDM2 protein (Homo sapiens, UniProt Q00987). The test can be described thus: fluorescence polarization screening assay (FP IC50). The note with it: class symbols. The class given is binding. Here is the method:
The compounds were evaluated to determine activity at the HDM2 protein by known methods such as the fluorescence polarization screening assay that measures the inhibitory concentration that achieves 50% of maximal activity (FP IC50) and the dissociation constant for inhibitor binding (FP Ki). [Zhang et al., J. Analytical Biochemistry 331: 138-146 (2004)].
On the technique in general: Fluorescence polarisation rises when a labelled molecule tumbles more slowly, as on binding a larger partner.

Sequence of HDM2 protein (Q00987 whole entry): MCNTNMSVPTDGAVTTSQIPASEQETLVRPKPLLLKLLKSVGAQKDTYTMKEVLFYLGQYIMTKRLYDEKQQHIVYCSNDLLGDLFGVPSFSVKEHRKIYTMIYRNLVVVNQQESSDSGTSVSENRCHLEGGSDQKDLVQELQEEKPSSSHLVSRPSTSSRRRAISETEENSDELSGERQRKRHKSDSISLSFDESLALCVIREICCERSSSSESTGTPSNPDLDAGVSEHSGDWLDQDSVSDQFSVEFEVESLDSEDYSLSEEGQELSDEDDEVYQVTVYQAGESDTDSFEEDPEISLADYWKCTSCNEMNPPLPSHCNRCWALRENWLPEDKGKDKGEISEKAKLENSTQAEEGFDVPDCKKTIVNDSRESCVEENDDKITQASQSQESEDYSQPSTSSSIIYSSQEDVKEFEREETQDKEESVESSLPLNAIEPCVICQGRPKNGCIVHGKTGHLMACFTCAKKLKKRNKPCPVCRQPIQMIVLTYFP

Take `CCC[C@H]1N(C(=O)c2ncccc2C(F)(F)F)CCC[C@@]1(Oc1csc(C(F)(F)F)c1)C(=O)N1Cc2ccccc2C(C(=O)O)C1` (stereo partly drawn) [Compound A154, 2-{[(2R,3S)-2-propyl-1-{[3-(trifluoromethyl)pyridin-2-yl]carbonyl}-3-{[5-(trifluoromethyl)thiophen-3-yl]oxy}piperidin-3-yl]carbonyl}-1,2,3,4-tetrahydroisoquinoline-4-carboxylic acid]: the IC50 fell in the range of 101 to 20000 nM.
As for `CCC[C@H]1N(C(=O)c2ncccc2C(F)(F)F)CCC[C@@]1(Oc1csc(C(F)(F)F)c1)C(=O)N1Cc2ccc(Cl)cc2C[C@@H]1CCCN1CCOCC1` [Compound A155, (3S)-6-chloro-3-(3-morpholin-4-ylpropyl)-2-{[(2R,3S)-2-propyl-1-{[3-(trifluoromethyl)pyridin-2-yl]carbonyl}-3-{[5-(trifluoromethyl)thiophen-3-yl]oxy}piperidin-3-yl]carbonyl}-1,2,3,4-tetrahydroisoquinoline], the figure is 1 to 100 nM; as for `CCC[C@H]1N(C(=O)c2ncccc2C(F)(F)F)CCC[C@@]1(Oc1csc(C(F)(F)F)c1)C(=O)N1Cc2ccc(Cl)cc2C[C@@H]1CCCN1CCC[C@H]1COC` [Compound A156, (3S)-6-chloro-3-{3-[(2S)-2-(methoxymethyl)pyrrolidin-1-yl]propyl}-2-{[(2R,3S)-2-propyl-1-{[3-(trifluoromethyl)pyridin-2-yl]carbonyl}-3-{[5-(trifluoromethyl)thiophen-3-yl]oxy}piperidin-3-yl]carbonyl}-1,2,3,4-tetrahydroisoquinoline], 1 to 100 nM.
As for `CCC[C@H]1N(C(=O)c2ncccc2C(F)(F)F)CCC[C@@]1(Oc1csc(C(F)(F)F)c1)C(=O)N1Cc2cc(F)c(F)cc2C[C@H]1CCC(=O)O` [Compound A157, 3-[(3R)-6,7-difluoro-2-{[(2R,3S)-2-propyl-1-{[3-(trifluoromethyl)pyridin-2-yl]carbonyl}-3-{[5-(trifluoromethyl)thiophen-3-yl]oxy}piperidin-3-yl]carbonyl}-1,2,3,4-tetrahydroisoquinolin-3-yl]propanoic acid], the figure is 1 to 100 nM; as for `CCC[C@H]1N(C(=O)c2ncccc2C(F)(F)F)CCC[C@@]1(Oc1csc(C(F)(F)F)c1)C(=O)N1Cc2ccc(F)cc2C[C@H]1CN(C)C(=O)[C@@H](C)O` [Compound A158, (2R)-N-{[(3S)-6-fluoro-2-{[(2R,3S)-2-propyl-1-{[3-(trifluoromethyl)pyridin-2-yl]carbonyl}-3-{[5-(trifluoromethyl)thiophen-3-yl]oxy}piperidin-3-yl]carbonyl}-1,2,3,4-tetrahydroisoquinolin-3-yl]methyl}-2-hydroxy-N-methylpropanamide], 101 to 20000 nM; as for `CCC[C@H]1N(C(=O)c2ncccc2C(F)(F)F)CCC[C@@]1(Oc1csc(C(F)(F)F)c1)C(=O)N1Cc2ccc(F)cc2C[C@H]1CN(C)C(=O)C(F)F` [Compound A159, 2,2-difluoro-N-{[(3S)-6-fluoro-2-{[(2R,3S)-2-propyl-1-{[3-(trifluoromethyl)pyridin-2-yl]carbonyl}-3-{[5-(trifluoromethyl)thiophen-3-yl]oxy}piperidin-3-yl]carbonyl}-1,2,3,4-tetrahydroisoquinolin-3-yl]methyl}-N-methylacetamide], 101 to 20000 nM.
`CCC[C@H]1N(C(=O)c2ncccc2C(F)(F)F)CCC[C@@]1(Oc1csc(C(F)(F)F)c1)C(=O)N1Cc2ccc(F)cc2C[C@H]1C(=O)N1CCN(C)CC1` [Compound A160, (3S)-6-fluoro-3-[(4-methylpiperazin-1-yl)carbonyl]-2-{[(2R,3S)-2-propyl-1-{[3-(trifluoromethyl)pyridin-2-yl]carbonyl}-3-{[5-(trifluoromethyl)thiophen-3-yl]oxy}piperidin-3-yl]carbonyl}-1,2,3,4-tetrahydroisoquinoline]: the IC50 fell in the range of 101 to 20000 nM.
The molecule `CCC[C@H]1N(C(=O)c2ncccc2C(F)(F)F)CCC[C@@]1(Oc1csc(C(F)(F)F)c1)C(=O)N1Cc2ccc(Cl)cc2C[C@@H]1C[C@H](COC)C(=O)O` [Compound A161, (2R)-3-[(3S)-6-chloro-2-{[(2R,3S)-2-propyl-1-{[3-(trifluoromethyl)pyridin-2-yl]carbonyl}-3-{[5-(trifluoromethyl)thiophen-3-yl]oxy}piperidin-3-yl]carbonyl}-1,2,3,4-tetrahydroisoquinolin-3-yl]-2-(methoxymethyl) propanoic acid] gave an IC50 of 1 to 100 nM.
The figure for `CCC[C@H]1N(C(=O)c2ncccc2C(F)(F)F)CCC[C@@]1(Oc1csc(C(F)(F)F)c1)C(=O)N1Cc2ccc(F)cc2C[C@H]1CN1CCC(O)CC1` [Compound A162, 1-{[(3S)-6-fluoro-2-{[(2R,3S)-2-propyl-1-{[3-(trifluoromethyl)pyridin-2-yl]carbonyl}-3-{[5-(trifluoromethyl)thiophen-3-yl]oxy}piperidin-3-yl]carbonyl}-1,2,3,4-tetrahydroisoquinolin-3-yl]methyl}piperidin-4-ol] is 101 to 20000 nM; for `CCC[C@H]1N(C(=O)c2ncccc2C(F)(F)F)CCC[C@@]1(Oc1csc(C(F)(F)F)c1)C(=O)N1Cc2ccc(F)cc2C[C@@H]1CCN(C)C(=O)[C@@H](C)O` [Compound A163, (2R)-N-{2-[(3R)-6-fluoro-2-{[(2R,3S)-2-propyl-1-{[3-(trifluoromethyl)pyridin-2-yl]carbonyl}-3-{[5-(trifluoromethyl)thiophen-3-yl]oxy}piperidin-3-yl]carbonyl}-1,2,3,4-tetrahydroisoquinolin-3-yl]ethyl}-2-hydroxy-N-methylpropanamide] it is 1 to 100 nM.
`CCC[C@H]1N(C(=O)c2ncccc2C(F)(F)F)CCC[C@@]1(Oc1csc(C(F)(F)F)c1)C(=O)N1Cc2ccc(Cl)cc2C[C@@H]1C[C@H](O)C(=O)O` [Compound A164, (2S)-3-[(3R)-6-chloro-2-{[(2R,3S)-2-propyl-1-{[3-(trifluoromethyl)pyridin-2-yl]carbonyl}-3-{[5-(trifluoromethyl)thiophen-3-yl]oxy}piperidin-3-yl]carbonyl}-1,2,3,4-tetrahydroisoquinolin-3-yl]-2-hydroxypropanoic acid] displayed an IC50 of 1 to 100 nM.
Molecule `CCC[C@H]1N(C(=O)c2ncccc2C(F)(F)F)CCC[C@@]1(Oc1csc(C(F)(F)F)c1)C(=O)N1Cc2ccc(Cl)cc2C[C@@H]1C[C@H](CC)C(=O)O` [Compound A165, (2S)-2-{[(3S)-6-chloro-2-{[(2R,3S)-2-propyl-1-{[3-(trifluoromethyl)pyridin-2-yl]carbonyl}-3-{[5-(trifluoromethyl)thiophen-3-yl]oxy}piperidin-3-yl]carbonyl}-1,2,3,4-tetrahydroisoquinolin-3-yl]methyl}butanoic acid] returned an IC50 of 1 to 100 nM.
As to `CCC[C@H]1N(C(=O)c2ncccc2C(F)(F)F)CCC[C@@]1(Oc1csc(C(F)(F)F)c1)C(=O)N1Cc2ccc(Cl)cc2C[C@@H]1C(=O)NC1CCOCC1` [Compound A166, (3R)-6-chloro-2-{[(2R,3S)-2-propyl-1-{[3-(trifluoromethyl)pyridin-2-yl]carbonyl}-3-{[5-(trifluoromethyl)thiophen-3-yl]oxy}piperidin-3-yl]carbonyl}-N-(tetrahydro-2H-pyran-4-yl)-1,2,3,4-tetrahydroisoquinoline-3-carboxamide], the IC50 is 1 to 100 nM.
`CCC[C@H]1N(C(=O)c2ncccc2C(F)(F)F)CCC[C@@]1(Oc1csc(C(F)(F)F)c1)C(=O)N1Cc2ccc(F)cc2C[C@H]1CCC(C)O` (stereo partly drawn) [Compound A167, 4-[(3R)-6-fluoro-2-{[(2R,3S)-2-propyl-1-{[3-(trifluoromethyl)pyridin-2-yl]carbonyl}-3-{[5-(trifluoromethyl)thiophen-3-yl]oxy}piperidin-3-yl]carbonyl}-1,2,3,4-tetrahydroisoquinolin-3-yl]butan-2-ol] had an IC50 of 1 to 100 nM.
The figure for `CCC[C@H]1N(C(=O)c2ncccc2C(F)(F)F)CCC[C@@]1(Oc1csc(C(F)(F)F)c1)C(=O)N1Cc2ccc(Cl)cc2C[C@@H]1C(=O)N1CCC(O)CC1` [Compound A168, 1-{[(3R)-6-chloro-2-{[(2R,3S)-2-propyl-1-{[3-(trifluoromethyl)pyridin-2-yl]carbonyl}-3-{[5-(trifluoromethyl)thiophen-3-yl]oxy}piperidin-3-yl]carbonyl}-1,2,3,4-tetrahydroisoquinolin-3-yl]carbonyl}piperidin-4-ol] is 1 to 100 nM.
Turning to `CCC[C@H]1N(C(=O)c2ncccc2C(F)(F)F)CCC[C@@]1(Oc1csc(C(F)(F)F)c1)C(=O)N1Cc2ccc(Cl)cc2C[C@@H]1C(=O)N1CCC(OC)CC1` [Compound A169, (3R)-6-chloro-3-[(4-methoxypiperidin-1-yl)carbonyl]-2-{[(2R,3S)-2-propyl-1-{[3-(trifluoromethyl)pyridin-2-yl]carbonyl}-3-{[5-(trifluoromethyl)thiophen-3-yl]oxy}piperidin-3-yl]carbonyl}-1,2,3,4-tetrahydroisoquinoline], the IC50 was in the range of 1 to 100 nM.
The figure for `CCC[C@H]1N(C(=O)c2ncccc2C(F)(F)F)CCC[C@@]1(Oc1csc(C(F)(F)F)c1)C(=O)N1Cc2ccc(Cl)cc2C[C@@H]1C(=O)N1CCC[C@@H](O)C1` [Compound A170, (3R)-1-{[(3R)-6-chloro-2-{[(2R,3S)-2-propyl-1-{[3-(trifluoromethyl)pyridin-2-yl]carbonyl}-3-{[5-(trifluoromethyl)thiophen-3-yl]oxy}piperidin-3-yl]carbonyl}-1,2,3,4-tetrahydroisoquinolin-3-yl]carbonyl}piperidin-3-ol] is 1 to 100 nM; for `CCC[C@H]1N(C(=O)c2ncccc2C(F)(F)F)CCC[C@@]1(Oc1csc(C(F)(F)F)c1)C(=O)N1Cc2sccc2CC1C(=O)O` (stereo partly drawn) [Compound A171, 6-{[(2R,3S)-2-propyl-1-{[3-(trifluoromethyl)pyridin-2-yl]carbonyl}-3-{[5-(trifluoromethyl)thiophen-3-yl]oxy}piperidin-3-yl]carbonyl}-4,5,6,7-tetrahydrothieno[2,3-c]pyridine-5-carboxylic acid] it is 101 to 20000 nM.

As a reminder, the IC50 is the concentration needed to halve the response being measured.
